pIC50: −log10 of the molar value.
Tested on: 653999-131-R-J2-PDC complex spheroids, growth % test/control
Experiment: Anticancer human tumor 653999-131-R-J2-PDC patient-derived lung adenocarcinoma cell line growth inhibition [AhR]
Conditions: for pIC50: curve of first compound; for viability, T/C: stronger effect = lower value
Source text: Multicellular complex tumor spheroid response to aryl hydrocarbon receptor antagonists in combination with a variety of drugs and investigational agents in selected tumor cell lines
The current study was undertaken to assess response to aryl hydrocarbon receptor antagonists in combination with standard-of-care drugs and investigational agents in solid tumor complex spheroid models. Complex spheroids include a stromal component modeled by human endothelial cells (HUVEC) and fibroblasts modeled by human mesenchymal stem cells (MSCs). The concentration ranges selected for each drug and investigational agent were based upon clinically achievable concentrations if the clinical Cmax of the agent was known.
Compounds. The drugs and investigational agents: BAY 2416964 (NSC825713), GNF351 (NSC835774), CH-223191 (NSC835775), CPI-455 (NSC825282), aza-TdCyd (NSC777586), decitabine (NSC127716), belinostat (NSC758774), entinostat (NSC756642), pevonedistat (NSC761192), tazemetostat (NSC777109), talazoparib (NSC765396), olaparib (NSC753686), selinexor (NSC780203), nedisertib (M3814, NSC802822), bortezomib (NSC756655), venetoclax (NSC766270), doxorubicin (NSC123127), elimusertib (BAY189344, NSC800525), ceralasertib (AZD6738, NSC777638), TAK-243 (NSC785004), alisertib (NSC759677), etoposide (NSC141540), topotecan (NSC609699), eribulin (NSC707389), gemcitabine (NSC613327), carboplatin (NSC241240), cisplatin (NSC119875), and SN-38 (NSC673596) were obtained from the National Cancer Institute (NCI) Developmental Therapeutics Program Chemical Repository (32). The FDA-approved anticancer drug set is available from the Developmental Therapeutics Program at https://dtp.cancer.gov/organization/dscb/obtaining/available plates.htm. […] The stock solutions were prepared in dimethyl sulfoxide (DMSO, Sigma-Aldrich, St. Louis, MO, cat. D2650), except for the platinum compounds which were prepared in saline (Quality Biological, Gaithersburg, MD, cat. 114-055-101), at 800-fold the tested concentration and stored at -70 degrees C prior to their use. All drugs and investigational agents were tested over a range starting from a high concentration at or near the clinical Cmax and decreasing in half-log increments. If the clinical Cmax for an agent had not been determined, the highest concentration tested was 10 microM (Table 1).
Cell Culture. All cells were maintained in an incubator at 37 degrees C and 5% CO2 with 95% humidity. The PDC lines were cultured according to standard operating procedures established by the NCI PDMR (https://pdmr.cancer.gov). Briefly, all PDCs were thawed and cultured in Matrigel-coated flasks prepared with a working solution of 1X Ham's F-12 nutrient mix, without supplementation (Invitrogen, Waltham, MA, cat. 11765054), 100 U/mL penicillin-streptomycin (Invitrogen, cat. 15140122), and 2.5% Matrigel (Corning Inc., Corning, NY, cat. 354248) for the first three passages. All PDCs were cultured in complete DMEM/F-12 media containing advanced DMEM/F-12 (Invitrogen, cat. 12634028), 4.9% defined fetal bovine serum, heat inactivated (HyClone Laboratories Inc., Logan, UT, cat. SH30070.03HI), 389 ng/mL hydrocortisone (Sigma-Aldrich, cat. H4001), 9.7 ng/mL human EGF recombinant protein (Invitrogen, cat. PHG0313), 23.4 microg/mL adenine (Sigma-Aldrich, cat. A2786), 97.3 U/mL penicillin-streptomycin (Invitrogen, cat. 15140122), 1.9 mM L-glutamine (Invitrogen, cat. 25030081), and 9.7 microM Y-27632 dihydrochloride (Tocris Bioscience, Bristol, United Kingdom, cat. 1254). The PDCs were cultured in complete DMEM/F12 media without 10 microM Y-27632 dihydrochloride for at least two passages prior to the screen. The established cell lines NCI-H1341 and […] were cultured in DMEM/F-12, HEPES (Invitrogen, cat. 11330032), 5% defined fetal bovine serum (HyClone Laboratories Inc., cat. SH30070.03), ITS premix universal culture supplement [insulin (5 microg/mL), transferrin (5 microg/mL), and selenious acid (5 ng/mL)] […]

[1] = second compound 0.1 µM, first compound 0.0316 µM
[2] = second compound 0.1 µM, first compound 0.1 µM
[3] = second compound 0.1 µM, first compound 0.316 µM
[4] = second compound 0.1 µM, first compound 1 µM
[5] = second compound 0.1 µM, first compound 3.16 µM
[6] = second compound 0.1 µM, first compound 10 µM
[7] = second compound 0.316 µM, first compound 0.0316 µM
[8] = second compound 0.316 µM, first compound 0.1 µM
[9] = second compound 0.316 µM, first compound 0.316 µM
[10] = second compound 0.316 µM, first compound 1 µM
[11] = second compound 0.316 µM, first compound 3.16 µM
[12] = second compound 0.316 µM, first compound 10 µM
[13] = second compound 1 µM, first compound 0.0316 µM
[14] = second compound 1 µM, first compound 0.1 µM
[15] = second compound 1 µM, first compound 0.316 µM
[16] = second compound 1 µM, first compound 1 µM
[17] = second compound 1 µM, first compound 3.16 µM
[18] = second compound 1 µM, first compound 10 µM
[19] = second compound 3.16 µM, first compound 0.0316 µM
[20] = second compound 3.16 µM, first compound 0.1 µM
[21] = second compound 3.16 µM, first compound 0.316 µM
[22] = second compound 3.16 µM, first compound 1 µM
[23] = second compound 3.16 µM, first compound 3.16 µM
[24] = second compound 3.16 µM, first compound 10 µM
[25] = second compound 10 µM, first compound 0.0316 µM
[26] = second compound 10 µM, first compound 0.1 µM
[27] = second compound 10 µM, first compound 0.316 µM
[28] = second compound 10 µM, first compound 1 µM
[29] = second compound 10 µM, first compound 3.16 µM
[30] = second compound 10 µM, first compound 10 µM
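Note: spheroids exposed to agents for seven days.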

pIC50 (second compound 0.1 µM)	pIC50 (second compound 0.316 µM)	pIC50 (second compound 1 µM)	pIC50 (second compound 3.16 µM)	pIC50 (second compound 10 µM)	Compound	viability, T/C [1]	viability, T/C [2]	viability, T/C [3]	viability, T/C [4]	viability, T/C [7]	viability, T/C [8]	viability, T/C [9]	viability, T/C [10]	viability, T/C [13]	viability, T/C [14]	viability, T/C [15]	viability, T/C [16]	viability, T/C [19]	viability, T/C [20]	viability, T/C [21]	further results
< 5.00	< 5.00	< 5.00	< 5.00	< 5.00	NS(=O)(=O)OCC1CC(n2ccc3c(NC4CCc5ccccc54)ncnc32)CC1O (stereo not given) + Cc1ccccc1N=Nc1ccc(NC(=O)c2ccnn2C)c(C)c1	111%	120%	118%	124%	114%	105%	123%	129%	115%	119%	124%	124%	125%	109%	142%	viability, T/C [5]: 88.9%; viability, T/C [6]: 64.7%; viability, T/C [11]: 72.7%; viability, T/C [12]: 61.3%; viability, T/C [17]: 63.3%; viability, T/C [18]: 61.4%; viability, T/C [22]: 93.4%; viability, T/C [23]: 61.8%; viability, T/C [24]: 62.3%; viability, T/C [25]: 129%; viability, T/C [26]: 118%; viability, T/C [27]: 115%; viability, T/C [28]: 63.7%; viability, T/C [29]: 56.7%; viability, T/C [30]: 60%
5.05	< 5.00	< 5.00	< 5.00	< 5.00	COc1ccc([C@@H](O)c2cc(-c3ncnc4cc(N5CCOCC5)ccc34)c(F)cc2Cl)nn1 + Cc1cncc(-c2nc(NCCc3c[nH]c4ccccc34)c3ncn(C(C)C)c3n2)c1	97.7%	121%	103%	82.4%	121%	122%	102%	99.9%	116%	123%	122%	101%	125%	119%	138%	viability, T/C [5]: 72.5%; viability, T/C [6]: 46.7%; viability, T/C [11]: 73%; viability, T/C [12]: 54.4%; viability, T/C [17]: 87.8%; viability, T/C [18]: 61%; viability, T/C [22]: 93%; viability, T/C [23]: 83.3%; viability, T/C [24]: 60.5%; viability, T/C [25]: 55.7%; viability, T/C [26]: 58.9%; viability, T/C [27]: 66.2%; viability, T/C [28]: 65.7%; viability, T/C [29]: 66.3%; viability, T/C [30]: 55.5%
< 6.00	< 6.00	< 6.00	< 6.00	< 6.00	Nc1ncn(C2CC(O)C(CO)O2)c(=O)n1 (stereo not given) + CC(CO)NC(=O)c1cc(-c2ccc(Cl)cc2)nn(-c2cnn(C)c2)c1=O	103%	89.4%	84.5%	79.9%	118%	89.8%	91.3%	83%	122%	109%	88.4%	86.4%	119%	110%	90.9%	viability, T/C (second compound 0.1 µM, first compound 0.00316 µM): 106%; viability, T/C (second compound 0.1 µM, first compound 0.01 µM): 110%; viability, T/C (second compound 0.316 µM, first compound 0.00316 µM): 106%; viability, T/C (second compound 0.316 µM, first compound 0.01 µM): 110%; viability, T/C (second compound 1 µM, first compound 0.00316 µM): 104%; viability, T/C (second compound 1 µM, first compound 0.01 µM): 108%; viability, T/C (second compound 3.16 µM, first compound 0.00316 µM): 106%; viability, T/C (second compound 3.16 µM, first compound 0.01 µM): 111%; viability, T/C [22]: 87.8%; viability, T/C (second compound 10 µM, first compound 0.00316 µM): 117%; viability, T/C (second compound 10 µM, first compound 0.01 µM): 116%; viability, T/C [25]: 109%; viability, T/C [26]: 126%; viability, T/C [27]: 99%; viability, T/C [28]: 109%
> 7.50	> 7.50	> 7.50	6.95	> 7.50	COc1cccc2c1C(=O)c1c(O)c3c(c(O)c1C2=O)CC(O)(C(=O)CO)CC3OC1CC(N)C(O)C(C)O1 (stereo not given) + Cc1cncc(-c2nc(NCCc3c[nH]c4ccccc34)c3ncn(C(C)C)c3n2)c1	50.2%	38.3%	26.9%	7.22%	50.4%	37.9%	27.2%	6.87%	51.4%	44.9%	27.6%	6.09%	56.1%	50%	28.9%	viability, T/C [5]: 3.85%; viability, T/C [6]: 14%; viability, T/C [11]: 3.35%; viability, T/C [12]: 12.9%; viability, T/C [17]: 3.45%; viability, T/C [18]: 15.4%; viability, T/C [22]: 4.87%; viability, T/C [23]: 4.59%; viability, T/C [24]: 12.2%; viability, T/C [25]: 40%; viability, T/C [26]: 35.5%; viability, T/C [27]: 21.5%; viability, T/C [28]: 2.46%; viability, T/C [29]: 5.69%; viability, T/C [30]: 7.61%
